According to US10487087B2, “Positive allosteric modulators of the GLP-1 receptor” (Vanderbilt University, priority 2015, dated 2019):

How the values were obtained:
Type in all cases: cell-based
human GLP-1R [1] = target: T1, human GLP-1R (Homo sapiens (Human), UniProt P43220); assay: GLP-1 assay with GLP1 endogenous agonist (calcium mobilization, EC20 GLP-1 peptide 7-36 amide); conditions: calcium flux; for Emax at 30 µM: 30 μM compound, EC20 of GLP-1 7-36 amide; for EC50: potentiation of EC20 GLP-1 7-36 amide
T1 sequence (P43220 24-463): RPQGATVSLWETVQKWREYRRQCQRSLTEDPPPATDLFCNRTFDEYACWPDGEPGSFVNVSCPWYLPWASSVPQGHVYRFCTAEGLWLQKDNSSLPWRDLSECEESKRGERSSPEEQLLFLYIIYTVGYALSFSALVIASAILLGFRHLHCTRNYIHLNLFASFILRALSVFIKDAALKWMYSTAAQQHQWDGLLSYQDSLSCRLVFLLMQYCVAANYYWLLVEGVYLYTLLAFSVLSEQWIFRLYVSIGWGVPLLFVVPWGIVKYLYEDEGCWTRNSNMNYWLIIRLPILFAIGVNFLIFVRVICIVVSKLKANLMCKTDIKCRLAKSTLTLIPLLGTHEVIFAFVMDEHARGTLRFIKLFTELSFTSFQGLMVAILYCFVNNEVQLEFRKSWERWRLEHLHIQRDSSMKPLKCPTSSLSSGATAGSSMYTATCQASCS
Source text: A. GLP-1 Assay with GLP1 Endogenous Agonist
(§1) To assess the effects of test compounds on GLP-1 or glucagon potency and efficacy, a high-throughput calcium mobilization assay was used essentially as previously described (Morris L C, Days E L, Turney M, Mi D, Lindsley C W, Weaver C D, Niswender K D, A Duplexed High-Throughput Screen to Identify Allosteric Modulators of the Glucagon-Like Peptide 1 and Glucagon Receptors. J. Biomol. Screen. 2014 Feb. 13, 19(6):847-858). Briefly, human GLP-1R or Glucagon Receptor 9-3-H cells over-expressing a promiscuous G-protein (Millipore, Billerica, Mass.) were plated at 15,000 cells/well in black-walled 384-well plates (Greiner Bio-one, Monroe, N.C.) in Dulbecco's Modified Eagles Medium (DMEM) with 10% FCS, 4.0 mM L-glutamine, non-essential amino acids (NEAAs), and 10.0 mM HEPES without antibiotics. After overnight attachment, cells were washed twice with assay buffer (HBSS supplemented with 20 mM HEPES and 1.0 mM probenecid) using an ELx405CW cell washer (Bio-Tek, Winooski, Vt.) and then loaded with the calcium sensitive dye fluo-4 AM (Invitrogen, Grand Island, N.Y.) at a final concentration of 2.0 μM in assay buffer. After a 45-minute incubation at room temperature, the dye was removed by washing, leaving 20 μL of assay buffer. Next, the cell plate was introduced alongside a 384-well compound plate containing 0.1% final DMSO control wells and 11-point concentration response curves of putative GLP-1 PAMs created using a non-pipet based liquid transfer instrument, ECH0555 (Labcyte, Sunnyvale, Calif.). After a 20 μL compound addition to the appropriate wells, kinetic fluorescent measurements were collected for 2 minutes using an FDSS6000 (Hamamatsu, Bridgewater, N.J.) with 488 nm excitation and 480/540 emission filters. After 2 minutes, 10 μL of an EC20 concentration of GLP-1 peptide 7-36 amide (Phoenix Pharmaceuticals, Burlingame, Calif.), Glucagon (Phoenix Pharmaceuticals, Burlingame, Calif.) Exendin-4 (Tocris Bioscience, Bristol, UK), or Liraglutide (Victoza™, Novo-Nordisk, Denmark) was added and fluorescence was monitored for an additional 2 minutes to observe potentiation of the calcium flux signal. […] Recombinant peptides were reconstituted into assay buffer supplemented with 0.1% fatty acid free BSA (Sigma #A6003) and diluted into borosilicate glass tubes to maximize peptide recovery (Goebel-Stengel M, Stengel A, Tache Y, Reeve J R Jr., The importance of using the optimal plasticware and glassware in studies involving peptides. Anal. Biochem. 2011 Jul. 1, 414(1):38-46).
(§2) Data is from a single experiment unless otherwise noted. Data that is an average of two experiments is noted as “n=2” while data that is an average of three or more experiments is presented as the average plus or minus the standard error of the mean.

human GLP-1R [2] = target: T1, human GLP-1R; assay: GLP-1 assay with EX-4 synthetic agonist (calcium mobilization, EC20 EX-4); conditions: calcium flux; for Emax at 30 µM: 30 μM compound, EC20 of EX-4; for EC50: potentiation of EC20 EX-4, read-out: GLP1 EC50 (Ex-4 synthetic agonist)
Source text: B. GLP-1 Assay with EX-4 Synthetic Agonist
as §1, with “L-glutamine, 1×” for “L-glutamine,”, “EL×405CW” for “ELx405CW”, “EX-4” for “GLP-1 peptide 7-36 amide”, “Taché” for “Tache”
as §2

human GLP-1R [3] = target: T1, human GLP-1R; assay: GLP-1 concentration response curves in the presence of fixed concentrations of PAM (GLP-1 induced calcium flux); conditions: 0 μM, 3 μM, 10 μM, 30 μM of compound; FIGS. 2A and 2B
Source text: FIGS. 2A and 2B show a series of GLP-1 concentration response curves in the presence of fixed concentrations of an exemplary positive allosteric modulator (Compound 1).

Emax at 30 µM (human GLP-1R [1]) [%]	EC50 (human GLP-1R [1]) [µM]	Emax at 30 µM (human GLP-1R [2]) [%]	EC50 (human GLP-1R [2]) [µM]	Compound	shift of GLP-1 concentration response curves / GLP-1 EC50 (human GLP-1R [3])
52	2.4	50	2.9	Cc1c2ccccc2n2c(C(=O)NC[C@@H]3CCCN3C(C)C)cn([C@H]3CCOC3)c(=O)c12 [Compound 4, N-(((S)-1-isopropylpyrrolidin-2-yl)methyl)-10-methyl-1-oxo-2-((S)-tetrahydrofuran-3-yl)-1,2-dihydropyrazino[1,2-a]indole-4-carboxamide]	–
56	3.6	56	3.6	Cc1c2n(c3ccccc13)[C@@H](C(=O)NC[C@@H]1CCCN1C(C)C)CN(C1CCCC1)C2=O [Compound 8, (R)-2-cyclopentyl-N-(((S)-1-isopropylpyrrolidin-2-yl)methyl)-10-methyl-1-oxo-1,2,3,4-tetrahydropyrazino[1,2-a]indole-4-carboxamide]	–
57	2.7	59	4.6	Cc1c2ccccc2n2c(C(=O)NC[C@@H]3CCCN3C(C)C)cn(C3CCCC3)c(=O)c12 [Compound 1, (S)-2-Cyclopentyl-N-((1-isopropylpyrrolidin-2-yl)methyl)-10-methyl-1-oxo-1,2-dihydropyrazino[1,2-a]indole-4-carboxamide]	leftward shift in the GLP-1 concentration response curves
44	> 30	–	> 30	CC(C)N1CCC[C@@H]1CNC(=O)c1cn(C2CCCC2)c(=O)c2c(Cl)c3ccccc3n12 [Compound 11, (R)-10-chloro-2-cyclopentyl-N-((1-isopropylpyrrolidin-2-yl)methyl)-1-oxo-1,2-dihydropyrazino[1,2-a]indole-4-carboxamide]	–
60	4.4	54	6.1	Cc1c2cc(F)ccc2n2c(C(=O)NC[C@@H]3CCCN3C(C)C)cn(C3CCCC3)c(=O)c12 [Compound 6, (S)-2-cyclopentyl-8-fluoro-N-((1-isopropylpyrrolidin-2-yl)methyl)-10-methyl-1-oxo-1,2-dihydropyrazino[1,2-a]indole-4-carboxamide]	–
53	2.2	59	3.6	CC(C)N1CCC[C@H]1CNC(=O)c1cn(C2CCCC2)c(=O)c2c(Br)c3ccccc3n12 [Compound 12, (S)-10-bromo-2-cyclopentyl-N-((1-isopropylpyrrolidin-2-yl)methyl)-1-oxo-1,2-dihydropyrazino[1,2-a]indole-4-carboxamide]	–
